Results as given in patent US20250049812A1, “Compounds that Inhibit Necroptosis and Their Preparation Methods” (SHANGHAI INSTITUTE OF ORGANIC CHEMISTRY, CHINESE ACADEMY OF …, priority 2021, published 2025).

The molecules below were run on Jurkat FADD (−/−) Cells (assay: TNF-α induced necroptosis of Jurkat FADD-deficient cells (CellTiter-Glo cell survival)). Details: Homo sapiens, Jurkat, 13 h.
Type: cell-based, human
Method: 1. Cell Activity Testing System (TNF-α Induces the Necroptosis of Jurkat Cells, the Human Leukemia Cells Deficient in FADD).
(1) Cell culture: Jurkat FADD-deficient cells were cultured in an RPMI 1640 medium with 10% fetal bovine serum (FBS), 100 U/mL penicillin, and 100 […]. The cells were cultured in a cell culture incubator at 37° C. with 5% CO2. And all the cells were cryopreserved in a complete medium containing 5-10% DMSO. Medium change and passage were performed 3-4 times per week.
(4) Experimental scheme: The system of TNF-α inducing the necroptosis of Jurkat FADD-deficient cells was used to screen for compounds with RIPKl kinase inhibitory activity.
Jurkat FADD-deficient cells were evenly inoculated into a 384-well plate with each well added with a 40 μL complete culture medium, followed by the addition of 5 μL of the under-testing compound to each well. The initial concentration of the compounds was set at 25 μM (for some compounds with higher activity, the initial concentration was set at 0.5 μM), with a three-fold gradient dilution, totaling 12 gradient points. Three replicate wells were set for each compound. In addition, there was a blank control group and a control group with TNFα stimulation only. After the compound was added, the mixture needed to be centrifuged and incubated in a cell culture incubator at 37° C. containing 5% CO2 for 1 hour. After that, 5 μL of 5 ng/mL TNFα was added to stimulate the occurrence of necroptosis. After centrifugation and mixing, the mixture was placed in the cell culture incubator for 13 hours (until the cell death rate reaches 65% in the group with only TNF-α), with a total volume of 50 μL per well. Then, the steps below were followed to test the cell survival rate.
The CellTiter-Glo® Buffer was removed from the reagent kit, equilibrated to room temperature, and used to dissolve the CellTiter-Glo® Substrate. The CellTiter-Glo® Reagent obtained could be directly used for the experiment.
15 μL of CellTiter-Glo® Reagent which has been equilibrated to room temperature was added to each well, and incubated in the dark for 15 minutes. After that, a microplate reader (Enspire Multimode Plate Reader of PerkinElmer, USA) was used to measure the chemiluminescence.
In the case of `COC(=O)c1cn2c3c(cccc13)N(C)C(=O)[C@@H](NC(=O)c1nnc(Cc3ccccc3)[nH]1)C2` [T-95, Methyl (S)-3-(5-benzyl-4H-1,2,4-triazole-3-carboxamide)-1-methyl-2-oxo-1,2,3,4-tetrahydro-[1,4] diazepine [3,2,1-hi] indole-7-carboxylate], the IC50 is reported as 100 to 1000 nM.

Same assay, conditions: Homo sapiens; TNF-α induced necroptosis, Jurkat FADD-deficient cells, 13 hours, CellTiter-Glo; read-out: IC50
In the case of `CN1C(=O)C(NC(=O)c2nnc(Cc3ccccc3)[nH]2)Cn2cc(I)c3cccc1c32` (racemic) [T-3, (±)-5-benzyl-N-(7-iodo-1-methyl-2-oxo-1,2,3,4-tetrahydro-[1,4]diazepino [3,2,1-hi]indol-3-yl)-4H-1,2,4-triazole-3-carboxamide], the IC50 is reported as 10 to 100 nM. For `CN1C(=O)C(NC(=O)c2nnc(Cc3ccccc3)[nH]2)Cc2c[nH]c3cc(C#Cc4cnn(C)c4)cc1c23` (racemic) [T-45, (±)-5-benzyl-N-(1-methyl-8-((1-methyl-1H-pyrazol-4-yl)ethynyl)-2-oxo-2,3,4,6-tetrahydro-1H-aza [4,3,2-cd]indol-3-yl)-4H-1,2,4-triazole-3-carboxamide], the IC50 was < 10 nM. In the case of `CN1C(=O)C(NC(=O)c2nnc(Cc3ccccc3)[nH]2)Cc2cn(-c3ccn(C)n3)c3cccc1c23` (racemic) [T-37, (±)-5-benzyl-N-(1-methyl-6-(1-methyl-1H-pyrazol-3-yl)-2-oxo-2,3,4,6-tetrahydro-1H-azacyclo [4,3,2-cd]indol-3-yl)-4H-1,2,4-triazole-3-carboxamide], the IC50 is reported as < 10 nM. With `CN1C(=O)C(NC(=O)c2nnc(Cc3ccccc3)[nH]2)Cc2cn(-c3ccnn3C)c3cccc1c23` (racemic) [T-36, (±)-5-benzyl-N-(1-methyl-6-(1-methyl-1H-pyrazol-5-yl)-2-oxo-2,3,4,6-tetrahydro-1H-azacyclo [4,3,2-cd]indol-3-yl)-4H-1,2,4-triazole-3-carboxamide] the IC50 was < 10 nM. In the case of `CN1C(=O)C(NC(=O)c2nnc(Cc3ccccc3)[nH]2)Cn2cc(-c3ccccc3C(F)(F)F)c3cccc1c32` (racemic) [T-84, (±)-5-benzyl-N-(1-methyl-2-oxo-7-(2-(trifluoromethyl)phenyl)-1,2,3,4-tetrahydro-[1,4]diazepino [3,2,1-hi]indol-3-yl)-4H-1,2,4-triazole-3-carboxamide], the IC50 is reported as 10 to 100 nM. For `CN1C(=O)C(N2CCc3c(nn(Cc4ccccc4)c3Cl)C2=O)Cc2cn(-c3ncccc3C(F)(F)F)c3cccc1c23` (racemic) [T-60, (±)-3-(2-benzyl-3-chloro-7-oxo-2,4,5,7-tetrahydro-6H-pyrazole [3,4-c]pyridin-6-yl)-1-methyl-6(3-(trifluoromethyl)pyridin-2-yl)-1,3,4,6-tetrahydro-2H-azepine [4,3,2-cd] indole-2-one], the IC50 was < 10 nM. For `CN1C(=O)C(NC(=O)c2nnc(Cc3ccccc3)[nH]2)Cn2cc(-c3cnn(C)c3)c3cccc1c32` (racemic) [T-15, (±)-5-benzyl-N-(1-methyl-7-(1-methyl-1H-pyrazol-4-yl)-2-oxy-1,2,3,4-tetrahydro-[1,4]diazepino [3,2,1-hi]indol-3-yl)-4H-1,2,4-triazole-3-carboxamide], the IC50 was < 10 nM. In the case of `CN1C(=O)C(N2CCc3c(nn(Cc4ccccc4)c3Cl)C2=O)Cn2cc(-c3ccnn3C)c3cccc1c32` (racemic) [T-89, (±)-3-(2-benzyl-3-chloro-7-oxo-2,4,5,7-tetrahydro-6H-pyrazole [3,4-c]pyridin-6-yl)-1-methyl-7-(1-methyl-1H-pyrazol-5-yl)-3,4-dihydro-[1,4]diazepine[3,2,1-hi]indole-2(1H)-one], the IC50 is reported as 10 to 100 nM. For `CN1C(=O)C(NC(=O)c2nnc(Cc3ccccc3)[nH]2)Cc2cn(-c3ncccc3CC(F)(F)F)c3cccc1c23` (racemic) [T-97, (±)-5-benzyl-N-(1-methyl-2-oxo-6-(3-(2,2,2-trifluoroethyl)pyridin-2-yl)-2,3,4,6-tetrahydro-1H-azacyclo [4,3,2-cd]indol-3-yl)-4H-1,2,4-triazole-3-carboxamide], the IC50 was < 10 nM. In the case of `COc1ccccc1-c1cn2c3c(cccc13)N(C)C(=O)C(NC(=O)c1nnc(Cc3ccccc3)[nH]1)C2` (racemic) [T-87, (±)-5-benzyl-N-(7-(2-methoxyphenyl)-1-methyl-2-oxo-1,2,3,4-tetrahydro-[1,4]diazepine [3,2,1-hi]indol-3-yl)-4H-1,2,4-triazole-3-carboxamide], the IC50 is reported as 10 to 100 nM. In the case of `CN1C(=O)C(NC(=O)c2nnc(Cc3ccccc3)[nH]2)Cc2cn(-c3ncccc3P(C)(C)=O)c3cccc1c23` (racemic) [T-110, (±)-5-benzyl-N-(6-(3-(dimethylphosphoryl)pyridin-2-yl)-1-methyl-2-oxo-2,3,4,6-tetrahydro-1H-aza [4,3,2-cd]indol-3-yl)-4H-1,2,4-triazole-3-carboxamide], the IC50 is reported as > 1000 nM. For `COC(=O)c1cccnc1-n1cc2c3c(cccc31)N(C)C(=O)C(NC(=O)c1nnc(Cc3ccccc3)[nH]1)C2` (racemic) [T-43, (±)-2-(3-(5-benzyl-4H-1,2,4-triazole-3-carboxamide)-1-methyl-2-oxo-1,2,3,4-tetrahydro-6H-azacyclo [4,3,2-cd]indol-6-yl)nicotinate], the IC50 was < 10 nM. In the case of `CN1C(=O)C(NC(=O)c2nnc(Cc3ccccc3)[nH]2)Cc2cn(-c3ncccc3CF)c3cccc1c23` (racemic) [T-54, (±)-5-benzyl-N-(6-(3-(fluoromethyl)pyridin-2-yl)-1-methyl-2-oxo-2,3,4,6-tetrahydro-1H-azacyclo [4,3,2-cd]indol-3-yl)-4H-1,2,4-triazole-3-carboxamide], the IC50 is reported as < 10 nM. With `CN1C(=O)[C@@H](NC(=O)c2nnc(Cc3ccccc3)[nH]2)Cc2c[nH]c3nccc1c23` [T-71, (S)-5-benzyl-N-(6-methyl-7-oxo-6,7,8,9-tetrahydro-2H-2,3,6-triazabenzene[cd]azulene-8-yl)-4H-1,2,4-triazole-3-carboxamide] the IC50 was 10 to 100 nM. Work on `CN(C)C(=O)c1cccnc1-n1cc2c3c(cccc31)N(C)C(=O)C(NC(=O)c1nnc(Cc3ccccc3)[nH]1)C2` (racemic) [T-57, (±)-2-(3-(5-benzyl-4H-1,2,4-triazole-3-carboxamide)-1-methyl-2-oxy-1,2,3,4-tetrahydro-6H-azacyclo [4,3,2-cd]indol-6-yl)-N,N-dimethylnicotinamide] yielded an IC50 of 100 to 1000 nM. For `CN1C(=O)C(NC(=O)c2nnc(Cc3ccccc3)[nH]2)Cn2cc(C#Cc3cnn(C)c3)c3cccc1c32` (racemic) [T-8, (±)-5-benzyl-N-(1-methyl-7-((1-methyl-1H-pyrazol-4-yl)ethynyl)-2-oxy-1,2,3,4-tetrahydro-[1,4]diazepino [3,2,1-hi]indol-3-yl)-4H-1,2,4-triazole-3-carboxamide], the IC50 was < 10 nM. With `Cc1nn(C)cc1-c1cn2c3c(cccc13)N(C)C(=O)[C@@H](NC(=O)c1nnc(Cc3ccccc3)[nH]1)C2` [T-117, (S)-5-benzyl-N-(7-(1,3-dimethyl-1H-pyrazol-4-yl)-1-methyl-2-oxo-1,2,3,4-tetrahydro-1,4-diazepine [3,2,1-hi]indol-3-yl)-4H-1,2,4-triazole-3-carboxamide] the IC50 was < 10 nM. Work on `CC(C)c1cccnc1-n1cc2c3c(cccc31)N(C)C(=O)C(NC(=O)c1nnc(Cc3ccccc3)[nH]1)C2` (racemic) [T-65, (±)-5-benzyl-N-(6-(3-isopropylpyridin-2-yl)-1-methyl-2-oxo-2,3,4,6-tetrahydro-1H-azacyclo [4,3,2-cd]indol-3-yl)-4H-1,2,4-triazole-3-carboxamide] yielded an IC50 of 10 to 100 nM. For `Cc1nn(C)c(C)c1-c1cn2c3c(cccc13)N(C)C(=O)C(NC(=O)c1nnc(Cc3ccccc3)[nH]1)C2` (racemic) [T-114, (±)-5-benzyl-N-(1-methyl-2-oxo-7-(1,3,5-trimethyl-1H-pyrazol-4-yl)-1,2,3,4-tetrahydro-[1,4]diazepine [3,2,1-hi]indol-3-yl)-4H-1,2,4-triazole-3-carboxamide], the IC50 was < 10 nM. For `Cc1c(-c2cn3c4c(cccc24)N(C)C(=O)[C@@H](NC(=O)c2nnc(Cc4ccccc4)[nH]2)C3)cnn1C` [T-125, (S)-5-benzyl-N-(7-(1,5-dimethyl-1H-pyrazol-4-yl)-1-methyl-2-oxo-1,2,3,4-tetrahydro-1,4-diazepine [3,2,1-hi]indol-3-yl)-4H-1,2,4-triazole-3-carboxamide], the IC50 was < 10 nM. Work on `CC(O)c1cccnc1-n1cc2c3c(cccc31)N(C)C(=O)C(NC(=O)c1nnc(Cc3ccccc3)[nH]1)C2` (racemic) [T-58, (±)-5-benzyl-N-(6-(3-(1-hydroxyethyl)pyridin-2-yl)-1-methyl-2-oxo-2,3,4,6-tetrahydro-1H-azacyclo [4,3,2-cd]indol-3-yl)-4H-1,2,4-triazole-3-carboxamide] yielded an IC50 of 10 to 100 nM. For `CN1C(=O)C(NC(=O)c2nnc(Cc3ccccc3)[nH]2)Cn2cc(-c3ncccc3C(F)(F)F)c3cccc1c32` (centres unmarked) [T-82, 5-benzyl-N-(1-methyl-2-oxo-7-(3-(trifluoromethyl)pyridin-2-yl)-1,2,3,4-tetrahydro-[1,4]diazepino[3,2,1-hi]indol-3-yl)-4H-1,2,4-triazole-3-carboxamide], the IC50 was < 10 nM.
